Consider 21 compounds from patent US20230113037A1 (Bayer Aktiengesellschaft, priority 2019, published 2023).

Molecules are shown by their SMILES. “And” between values parts separate entries of the source, which are not always exact repeats. Equal values may be shown once. Read-outs that look alike come from different tables or passages of the source.

The target of experiment [1] is T1, AHR (Homo sapiens, UniProt P35869).
T1 construct: U87 MG glioblastoma cells (ATCC #HTB-14) endogenously expressing AHR; endogenous in cells; host or cells: U87 MG glioblastoma cells (ATCC #HTB-14)
T1 sequence (P35869 11-848): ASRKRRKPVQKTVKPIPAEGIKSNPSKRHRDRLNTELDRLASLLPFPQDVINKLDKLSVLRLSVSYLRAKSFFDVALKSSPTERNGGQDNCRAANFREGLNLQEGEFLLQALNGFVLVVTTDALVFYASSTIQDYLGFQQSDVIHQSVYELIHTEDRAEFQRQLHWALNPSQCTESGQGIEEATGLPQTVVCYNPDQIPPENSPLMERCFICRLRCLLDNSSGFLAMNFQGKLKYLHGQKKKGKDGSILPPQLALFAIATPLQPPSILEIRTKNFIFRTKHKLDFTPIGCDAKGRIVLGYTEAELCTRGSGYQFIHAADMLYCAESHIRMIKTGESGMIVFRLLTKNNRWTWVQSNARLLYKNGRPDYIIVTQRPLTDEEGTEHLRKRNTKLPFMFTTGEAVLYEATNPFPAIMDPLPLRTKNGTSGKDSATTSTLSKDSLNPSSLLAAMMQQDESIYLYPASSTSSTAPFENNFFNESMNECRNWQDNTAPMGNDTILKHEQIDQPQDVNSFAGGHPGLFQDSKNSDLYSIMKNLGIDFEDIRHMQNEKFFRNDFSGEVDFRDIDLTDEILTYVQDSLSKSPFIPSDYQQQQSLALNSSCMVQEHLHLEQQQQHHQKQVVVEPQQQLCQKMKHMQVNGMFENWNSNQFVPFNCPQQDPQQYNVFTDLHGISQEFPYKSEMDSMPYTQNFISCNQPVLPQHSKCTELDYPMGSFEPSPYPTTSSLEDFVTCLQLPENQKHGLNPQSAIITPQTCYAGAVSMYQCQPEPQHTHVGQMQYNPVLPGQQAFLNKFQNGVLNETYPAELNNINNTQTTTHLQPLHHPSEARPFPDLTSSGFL
The experiment in a line: In vitro assay 1: antagonism in human cell line (AHR transactivation, firefly luciferase reporter, kynurenic acid prestimulated). Type of experiment: cell-based. The note with it: AHR Antagonism Human IC50 [M]. A digest of the protocol:
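Antagonism is measured against kynurenic acid prestimulation in U87 MG glioblastoma cells carrying stable DRE-luciferase and Renilla reporters. Positive inhibition control: 150 μM kynurenic acid with 5 μM staurosporine. Values are normalized to controls; repeats are averaged or given as medians.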

Experiment [2] has as its target T2, AHR (Mus musculus, UniProt P30561).
T2 sequence (P30561 1-848 P471L/N533S/M589L): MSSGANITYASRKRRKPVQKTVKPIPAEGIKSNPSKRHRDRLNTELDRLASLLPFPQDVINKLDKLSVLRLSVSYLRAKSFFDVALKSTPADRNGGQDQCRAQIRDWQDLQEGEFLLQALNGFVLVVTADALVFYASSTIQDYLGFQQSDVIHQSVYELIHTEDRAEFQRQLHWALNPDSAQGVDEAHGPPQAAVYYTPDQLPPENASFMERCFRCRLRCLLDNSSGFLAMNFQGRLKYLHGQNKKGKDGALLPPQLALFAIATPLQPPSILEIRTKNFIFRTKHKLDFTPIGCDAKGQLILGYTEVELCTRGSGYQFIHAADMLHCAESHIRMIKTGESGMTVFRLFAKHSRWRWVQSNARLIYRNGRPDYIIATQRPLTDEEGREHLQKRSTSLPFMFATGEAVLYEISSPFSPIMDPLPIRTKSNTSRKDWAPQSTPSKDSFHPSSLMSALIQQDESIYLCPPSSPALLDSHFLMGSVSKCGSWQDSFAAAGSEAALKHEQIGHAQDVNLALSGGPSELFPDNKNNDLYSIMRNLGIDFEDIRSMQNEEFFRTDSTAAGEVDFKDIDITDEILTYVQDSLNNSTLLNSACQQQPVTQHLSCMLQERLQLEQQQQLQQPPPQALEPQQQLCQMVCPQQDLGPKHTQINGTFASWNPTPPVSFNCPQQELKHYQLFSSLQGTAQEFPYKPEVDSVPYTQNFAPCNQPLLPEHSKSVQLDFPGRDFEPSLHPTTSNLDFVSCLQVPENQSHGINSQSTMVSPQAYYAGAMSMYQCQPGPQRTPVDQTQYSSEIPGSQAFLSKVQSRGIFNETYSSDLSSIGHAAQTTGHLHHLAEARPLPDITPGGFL
As to the kind of experiment: In vitro assay 3: antagonism in mouse cell line (AHR transactivation, firefly luciferase reporter, kynurenic acid prestimulated). Type of experiment: cell-based. A digest of the protocol: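 Kynurenic acid-prestimulated mouse reporter cells; stable AHR-inducible firefly luc construct with DRE sites in promoter. No-agonist wells = positive inhibition ctrl. Luminescence normalized to pos/neg ctrls; n>1 reported as mean or median.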
In general terms: In a reporter assay the amount or activity of a reporter protein is the signal.

The mark [3] stands for this setting: mouse Hepa 1c1c7 cells, 200 μM kynurenic acid, 20 hours, read-out: AHR Antagonism Mouse IC50.
Where [4] appears, read: read-out: AHR Antagonism Mouse IC50, mouse Hepa 1c1c7 cells, 200 μM kynurenic acid, 20 hours.

Turning to `O=C1NCCCC[C@H]1Nc1nc2ccccc2c2nc(-c3ccc(F)c(F)c3)nn12` [Example 633, (3R)-3-{[2-(3,4-difluorophenyl)[1,2,4]triazolo[1,5-c]quinazolin-5-yl]amino}azepan-2-one], the concentration for half-maximal inhibition (IC50) (as a rule, the midpoint of a concentration-inhibition curve) against AHR [1] is 1.14e-09 M; on AHR [2] (setting [3]), 0.00064 µM.
In the case of `O=C1NCCCC[C@H]1Nc1nc2ccccc2c2nc(-c3ccc(O)cc3F)nn12` [Example 634, (3R)-3-{[2-(2-fluoro-4-hydroxyphenyl)[1,2,4]triazolo[1,5-c]quinazolin-5-yl]amino}azepan-2-one], the values for the IC50 against AHR [1] and on AHR [2] (setting [3]) were 9.09e-08 M and 0.206 µM, respectively.
For `COc1ccc(-c2nc3c4ccccc4nc(N[C@@H]4CCCCNC4=O)n3n2)cc1F` [Example 635, (3R)-3-{[2-(3-fluoro-4-methoxyphenyl)[1,2,4]triazolo[1,5-c]quinazolin-5-yl]amino}azepan-2-one] the same measures were 9.49e-10 M and 0.0011 µM.
Take `Cc1cncc(-c2nc3c4ccccc4nc(N[C@@H]4CCCCNC4=O)n3n2)c1` [Example 636, (3R)-3-{[2-(5-methylpyridin-3-yl)[1,2,4]triazolo[1,5-c]quinazolin-5-yl]amino}azepan-2-one]: the IC50 was 2.32e-08 M at AHR [1] and 0.00598 µM at AHR [2] (setting [3]).
Taken in the same sequence, the figures for `Nc1ccc(-c2nc3c4ccccc4nc(N[C@@H]4CCCCNC4=O)n3n2)cn1` [Example 637, (3R)-3-{[2-(6-aminopyridin-3-yl)[1,2,4]triazolo[1,5-c]quinazolin-5-yl]amino}azepan-2-one] were 1.15e-08 M and 0.0214 µM.
For `O=C1NCCCC[C@H]1Nc1nc2ccccc2c2nc(-c3ccnc(F)c3)nn12` [Example 638, (3R)-3-{[2-(2-fluoropyridin-4-yl)[1,2,4]triazolo[1,5-c]quinazolin-5-yl]amino}azepan-2-one] the same measures were 4e-09 M and 0.0104 µM.
For the compound `O=C1NCCCC[C@H]1Nc1nc2ccccc2c2nc(-c3cccnc3F)nn12` [Example 640, (3R)-3-{[2-(2-fluoropyridin-3-yl)[1,2,4]triazolo[1,5-c]quinazolin-5-yl]amino}azepan-2-one], the half-inhibitory concentration (IC50) on AHR [1] was 2.54e-08 M; at AHR [2] (setting [3]), 0.0307 µM.
As for `Cc1ncc(-c2nc3c4ccccc4nc(N[C@@H]4CCCCNC4=O)n3n2)cc1F` [Example 641, (3R)-3-{[2-(5-fluoro-6-methylpyridin-3-yl)[1,2,4]triazolo[1,5-c]quinazolin-5-yl]amino}azepan-2-one], the figures for the IC50 at AHR [1] and at AHR [2] (setting [3]) were 6.85e-09 M and 0.00246 µM, respectively.
With `O=C1NCCCC[C@H]1Nc1nc2ccccc2c2nc(-c3cncnc3)nn12` [Example 642, (3R)-3-{[2-(pyrimidin-5-yl)[1,2,4]triazolo[1,5-c]quinazolin-5-yl]amino}azepan-2-one], the results for the 50% inhibitory concentration (IC50) against AHR [1] and at AHR [2] (setting [3]) were 3.34e-07 M and 0.683 µM, respectively.
For `O=C1NCCCC[C@H]1Nc1nc2ccccc2c2nc(-c3cccnn3)nn12` [Example 644, (3R)-3-{[2-(pyridazin-3-yl)[1,2,4]triazolo[1,5-c]quinazolin-5-yl]amino}azepan-2-one] the same measures were 1.03e-07 M and 0.0617 µM.
For `O=C1NCCCC[C@H]1Nc1nc2ccccc2c2nc(-c3cnsc3)nn12` [Example 645, (3R)-3-{[2-(1,2-thiazol-4-yl)[1,2,4]triazolo[1,5-c]quinazolin-5-yl]amino}azepan-2-one] the same measures were 1.66e-08 M and 0.00664 µM.
With `O=C1NCCCC[C@H]1Nc1nc2ccccc2c2nc(-c3cnn(C4CCNCC4)c3)nn12` [Example 646, (3R)-3-({2-[1-(piperidin-4-yl)-1H-pyrazol-4-yl][1,2,4]triazolo[1,5-c]quinazolin-5-yl}amino)azepan-2-one], the half-maximal inhibitory concentration (IC50) against AHR [1] is 2.89e-06 M; on AHR [2] (setting [3]), > 20 µM and 11.8 µM.
On to `COc1ccc(-c2nc3c4c(C5CNC5)cccc4nc(N[C@@H]4CCCCNC4=O)n3n2)cc1` [Example 647, (3R)-3-{[10-(azetidin-3-yl)-2-(4-methoxyphenyl)[1,2,4]triazolo[1,5-c]quinazolin-5-yl]amino}azepan-2-one], for which the IC50 against AHR [1] was 6.34e-06 M; at AHR [2] (setting [3]), > 20 µM and 12.8 µM.
Regarding `CS(=O)(=O)c1ccccc1-c1nc2c3ccccc3nc(N[C@@H]3CCCCNC3=O)n2n1` [Example 649, (3R)-3-({2-[2-(methanesulfonyl)phenyl][1,2,4]triazolo[1,5-c]quinazolin-5-yl}amino)azepan-2-one], the half-maximal inhibitory concentration (IC50) at AHR [1] was found to be 3.8e-07 M; on AHR [2] (setting [3]), 0.0273 µM.
Turning to `CS(=N)(=O)c1ccccc1-c1nc2c3ccccc3nc(N[C@@H]3CCCCNC3=O)n2n1` (stereo partly drawn) [Example 650, (3R)-3-({2-[2-(S-methylsulfonimidoyl)phenyl][1,2,4]triazolo[1,5-c]quinazolin-5-yl}amino)azepan-2-one], the IC50 against AHR [1] was 1.1e-07 M; at AHR [2] (setting [4]), 0.0671 µM.
As to `COc1ccc(-c2nc3c4cccc(C(=O)OC(C)C)c4nc(N[C@@H]4CCCCNC4=O)n3n2)cc1` [Example 653, propan-2-yl 2-(4-methoxyphenyl)-5-{[(3R)-2-oxoazepan-3-yl]amino}[1,2,4]triazolo[1,5-c]quinazoline-7-carboxylate], the IC50 against AHR [1] is 2.58e-07 M; on AHR [2] (setting [3]), greater than 20 µM.
Taken in the same sequence, the figures for `COc1ccc(-c2nc3c4cccc(N5CCOCC5)c4nc(N[C@@H]4CCCCNC4=O)n3n2)cc1` [Example 654, (3R)-3-{[2-(4-methoxyphenyl)-7-(morpholin-4-yl)[1,2,4]triazolo[1,5-c]quinazolin-5-yl]amino}azepan-2-one] were 1.03e-07 M and 0.221 µM.
Taken in the same sequence, the figures for `COc1ccc(-c2nc3c4c(N5CCOCC5)cccc4nc(N[C@@H]4CCCCNC4=O)n3n2)cc1` [Example 655, (3R)-3-{[2-(4-methoxyphenyl)-10-(morpholin-4-yl)[1,2,4]triazolo[1,5-c]quinazolin-5-yl]amino}azepan-2-one] were 1.39e-07 M and 0.256 µM.
Taken in the same sequence, the figures for `CCOC(=O)[C@@H](C)Nc1nc2ccccc2c2nc(-c3ccc(OC)cc3)nn12` [Example 657, ethyl N-[2-(4-methoxyphenyl)[1,2,4]triazolo[1,5-c]quinazolin-5-yl]-D-alaninate] were 1.4e-08 M and 0.0821 µM.
Take `COc1ccc(-c2nc3c4ccccc4nc(N[C@H](C)C(=O)NC4CCCCC4)n3n2)cc1` [Example 665, N-cyclohexyl-N2-[2-(4-methoxyphenyl)[1,2,4]triazolo[1,5-c]quinazolin-5-yl]-D-alaninamide]: the IC50 against AHR [1] came to 1.87e-08 M; on AHR [2] (setting [4]), 0.0113 µM.
With `CCOc1cccc2c1nc(N[C@@H]1CCCCNC1=O)n1nc(-c3ccc(OC)cc3)nc21` [Example 667, (3R)-3-{[7-ethoxy-2-(4-methoxyphenyl)[1,2,4]triazolo[1,5-c]quinazolin-5-yl]amino}azepan-2-one], the IC50 was determined as 2.68e-09 M at AHR [1] and 0.00456 µM at AHR [2] (setting [3]).
